{
  "source": "patent US8569268B2",
  "about": "“Acrylate/methacrylate-based diblock copolymer/anthranilic diamide compositions for propagule coating” (E I du Pont de Nemours and Company, priority 2010, dated 2013)",
  "tested_on": "Spodoptera frugiperda",
  "test": "Laboratory test with 2nd instar larva of Spodoptera frugiperda on maize leaves",
  "assay_type": "in vivo",
  "data": [
    {"smiles": "CNC(=O)c1cc(Cl)cc(C)c1NC(=O)c1cc(Br)nn1-c1ncccc1Cl", "note": "[Compound 2, 3-bromo-N-[4-chloro-2-methyl-6-[(methylamino)carbonyl]phenyl]-1-(3-chloro-2-pyridinyl)-1H-pyrazole-5-carboxamide]", "values": [
      {"measurement": "concentration needed to achieve 100% mortality within 72 h", "value": "0.037 micrograms per g of tissue"},
      {"measurement": "concentration resulting in 50% mortality within 72 h", "value": "0.033 micrograms per g of leaf tissu"}
    ]}
  ]
}
